Assay [1] addresses T1, Protein deacetylase HDAC6 (Homo sapiens, UniProt Q9UBN7).
T1 sequence (Q9UBN7 whole entry): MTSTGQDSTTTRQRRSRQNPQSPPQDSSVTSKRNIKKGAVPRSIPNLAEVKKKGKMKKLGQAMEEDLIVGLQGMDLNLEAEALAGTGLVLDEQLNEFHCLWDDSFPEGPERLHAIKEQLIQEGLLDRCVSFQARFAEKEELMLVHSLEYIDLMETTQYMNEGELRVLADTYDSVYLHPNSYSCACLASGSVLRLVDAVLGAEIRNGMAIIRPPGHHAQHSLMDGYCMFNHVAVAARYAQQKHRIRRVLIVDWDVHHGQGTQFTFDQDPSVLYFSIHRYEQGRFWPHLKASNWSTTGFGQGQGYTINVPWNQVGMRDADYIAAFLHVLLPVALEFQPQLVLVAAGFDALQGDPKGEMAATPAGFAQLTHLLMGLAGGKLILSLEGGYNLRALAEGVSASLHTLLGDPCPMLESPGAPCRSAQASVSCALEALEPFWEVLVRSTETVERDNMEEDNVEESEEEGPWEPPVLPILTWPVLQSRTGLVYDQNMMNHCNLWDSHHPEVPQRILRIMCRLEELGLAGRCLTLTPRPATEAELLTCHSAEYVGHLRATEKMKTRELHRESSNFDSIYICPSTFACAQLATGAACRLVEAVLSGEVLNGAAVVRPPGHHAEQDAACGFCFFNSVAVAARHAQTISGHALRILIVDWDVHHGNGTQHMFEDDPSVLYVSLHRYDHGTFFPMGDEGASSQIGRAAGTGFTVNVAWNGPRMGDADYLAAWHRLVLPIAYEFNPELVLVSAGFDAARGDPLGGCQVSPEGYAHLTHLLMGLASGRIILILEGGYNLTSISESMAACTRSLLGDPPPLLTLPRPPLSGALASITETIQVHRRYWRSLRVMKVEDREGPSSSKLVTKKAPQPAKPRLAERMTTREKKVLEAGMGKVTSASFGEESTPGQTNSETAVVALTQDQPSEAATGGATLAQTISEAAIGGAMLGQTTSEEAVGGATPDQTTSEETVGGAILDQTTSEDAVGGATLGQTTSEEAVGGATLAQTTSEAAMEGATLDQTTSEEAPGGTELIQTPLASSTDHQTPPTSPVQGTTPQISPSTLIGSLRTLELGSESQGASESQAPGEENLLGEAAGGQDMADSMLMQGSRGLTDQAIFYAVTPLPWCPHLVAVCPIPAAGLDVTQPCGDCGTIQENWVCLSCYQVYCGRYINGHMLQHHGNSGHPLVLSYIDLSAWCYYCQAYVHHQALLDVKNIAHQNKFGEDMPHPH
Nature of the assay: Displacement of FITC-labeled RLRGG peptide from N-terminal His6-tagged HDAC6 zinc-finger ubiquitin binding domain (1109 to 1215 residues)(unknown origin) expressed in Escherichia coli BL21(DE3) after 10 mins by fluorescence polarization assay.

The target in assay [2] is T1, Protein deacetylase HDAC6. Nature of the assay: Binding affinity to N-terminal His6-tagged HDAC6 zinc-finger ubiquitin binding domain (1109 to 1215 residues)(unknown origin) expressed in Escherichia coli BL21(DE3) by isothermal titration calorimetry. Background: In ITC the heat of successive injections is recorded.
For assay [3], the target named is T1, Protein deacetylase HDAC6. Nature of the assay: Binding affinity to N-terminal Avi-tagged/C-terminal His6-tagged HDAC6 zinc-finger ubiquitin binding domain (1109 to 1215 residues)(unknown origin) expressed in Escherichia coli BL21(DE3) after 30 secs by SPR assay.

Structures are written as SMILES.

Broadly, the IC50 is the point on the concentration scale where inhibition reaches its midpoint. A word on the Kd: it is the constant that tells how readily two partners part at equilibrium.

Take `Cn1c(=O)c(CCC(=O)O)nc2ccccc21`: in assay [1] (read-out: IC50), the IC50 was 70 µM.

Consider `CCC(=O)Nc1nc(C)cs1`, for which, in assay [1], the IC50 entry was “Not Active”. Besides, the Kd result in assay [2] and in assay [3] was “Not Active” in each case.

Turning to `Cn1ccnc1COc1nc2ccccc2nc1CCC(=O)O`, in assay [1] (read-out: IC50), the IC50 was 140 µM.

For `O=C(O)CCc1nc2ccccc2nc1OCc1ccccn1`, the IC50 in assay [1] (read-out: IC50) is 270 µM.

`O=C(O)CCn1nc(-c2cccnc2)ccc1=O`: in assay [1] (read-out: IC50), the IC50 is 350 µM. For the same compound, the figures for the Kd in assay [2] (read-out: Kd) and in assay [3] (read-out: Kd) were 210 µM and 220 µM, respectively.

For `O=C(O)CCc1nc2cc(Cl)ccc2s1`, the IC50 in assay [1] (read-out: IC50) came to 55 µM. In addition, the Kd amounted to 40 µM in assay [2] (read-out: Kd) and 60 µM in assay [3] (read-out: Kd).

Turning to `Cc1cccc(OCCOc2nc3ccccc3nc2CCC(=O)O)c1`, the IC50 in assay [1] (read-out: IC50) was 180 µM.

For `Cc1n[nH]c(=O)nc1Nc1ccc(C(C)C)cc1`, the IC50 result in assay [1] is given as “Not Active”. For the same compound, the Kd result in assay [2] and in assay [3] was “Not Active” in each case.

Turning to `O=C(O)CCc1nc2ccccc2nc1OCc1cccs1`, the IC50 entry in assay [1] is on record as “Not Active”.

For `O=C(O)CCc1nc2ccccc2nc1OCCOc1ccccn1`, the IC50 in assay [1] (read-out: IC50) amounted to 110 µM.

On to `O=C(O)CCc1nc2ccccc2nc1Sc1ccccc1`, for which the IC50 in assay [1] (read-out: IC50) came out at 60 µM.

On to `O=C(O)CCc1nc2ccccc2nc1OCc1ccccc1`, for which, in assay [1], the IC50 result was “Not Active”.

For the origin of these results see ChEMBL document CHEMBL4017545, “Small Molecule Antagonists of the Interaction between the Histone Deacetylase 6 Zinc-Finger Domain and Ubiquitin” (J Med Chem, 2017).
